Test [1] concerns the target T1, androgen receptor (AR) (Homo sapiens, UniProt P10275, T878A).
T1 construct: stably transfected eGFP-expressing LNCaP human prostate cancer cells (LN-ARR2PB-eGFP) containing an androgen responsive probasin-derived promoter; endogenous in cells; host or cells: LNCaP (LN-ARR2PB-eGFP)
T1 sequence (P10275 1-920 T878A): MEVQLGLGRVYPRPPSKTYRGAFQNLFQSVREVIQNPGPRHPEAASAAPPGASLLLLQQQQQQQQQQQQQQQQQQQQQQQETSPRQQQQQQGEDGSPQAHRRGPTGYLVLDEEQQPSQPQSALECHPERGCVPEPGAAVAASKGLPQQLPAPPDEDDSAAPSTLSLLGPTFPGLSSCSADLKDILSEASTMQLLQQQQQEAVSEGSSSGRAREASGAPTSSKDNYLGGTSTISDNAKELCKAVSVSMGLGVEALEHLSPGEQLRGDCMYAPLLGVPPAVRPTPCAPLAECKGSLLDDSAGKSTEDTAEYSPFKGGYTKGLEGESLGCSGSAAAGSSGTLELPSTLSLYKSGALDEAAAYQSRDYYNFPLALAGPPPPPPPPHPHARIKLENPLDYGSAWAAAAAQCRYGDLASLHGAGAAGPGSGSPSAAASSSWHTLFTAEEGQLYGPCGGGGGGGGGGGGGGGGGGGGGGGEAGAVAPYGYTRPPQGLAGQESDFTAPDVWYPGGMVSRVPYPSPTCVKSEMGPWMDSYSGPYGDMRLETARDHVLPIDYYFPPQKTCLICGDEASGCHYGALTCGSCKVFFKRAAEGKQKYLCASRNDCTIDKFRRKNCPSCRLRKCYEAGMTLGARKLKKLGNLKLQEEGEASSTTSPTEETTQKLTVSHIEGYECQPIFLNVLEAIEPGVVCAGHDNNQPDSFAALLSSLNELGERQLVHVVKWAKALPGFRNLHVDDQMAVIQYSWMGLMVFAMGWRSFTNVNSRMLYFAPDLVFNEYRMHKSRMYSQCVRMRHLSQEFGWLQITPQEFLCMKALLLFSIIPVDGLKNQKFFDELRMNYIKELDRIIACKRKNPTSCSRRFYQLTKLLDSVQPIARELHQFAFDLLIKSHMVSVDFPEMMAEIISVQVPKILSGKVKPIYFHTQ
As to the kind of experiment: eGFP cellular AR transcription assay. To be noted: LN-ARR2PBeGFP LNCaP cells, 0.1 nM R1881, 3 days incubation; for IC50: read-out: eGFP IC50. The test is classed as cell-based. The procedure, abridged:
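AR transcriptional activity is read as eGFP expression from a probasin-derived androgen-responsive promoter. Compound titrated 0-100 μM in the presence of 0.1 nM R1881; 35,000 cells/well.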

In test [2] the test system is PSA. As to the kind of experiment: Prostate Surface Antigen (PSA) assay, PSA excreted into the media. The test is classed as cell-based, human. To be noted: PSA excreted into media, same plates as eGFP assay, 3 days incubation; for IC50: Homo sapiens, 72 h, read-out: PSA IC50. The procedure:
The evaluation of PSA excreted into the media was performed in parallel to the eGFP assay using the same plates (see above description). After the cells were incubated for 3 days 150 μl of the media was taken from each well, and added to 150 μl of PBS.

With `c1ccc2ncc(-c3c[nH]c4ccncc34)cc2c1` [Compound 13637], in test [1], the “eGFP IC50” value was “Inactive”. Moreover, the “PSA IC50” value in test [2] is “Inactive”.

`COc1ccc(Br)cc1-c1c[nH]c2ccccc12` [Compound 13638]: the “eGFP IC50” value in test [1] is given as “Inactive”. Also, in test [2], the “PSA IC50” value is given as “Inactive”.

Regarding `Fc1ccc(Cl)c2[nH]cc(-c3ccc4ccccc4n3)c12` [Compound 13639], the IC50 in test [1] is 549 nM; in test [2], 544 nM.

On to `CNC(=O)c1cccc2nc(-c3c[nH]c4cc(F)c(F)cc34)ccc12` [Compound 13645], for which the IC50 came out at 261 nM in test [1] and 247 nM in test [2].

With `Cc1c(F)ccc2c(-c3ccc4ccc(F)cc4n3)c[nH]c12` [Compound 13646], the values for the IC50 in test [1] and in test [2] were 179 nM and 224 nM, respectively.

Consider `Cc1ccc2nc(-n3ccc4cccc(C)c43)ccc2c1` [Compound 13647], for which the “eGFP IC50” value in test [1] is listed as “Inactive”. The “PSA IC50” value in test [2] was “Inactive”.

On to `Cc1cccc2ccn(-c3ccc4ccc(F)cc4n3)c12` [Compound 13648], for which, in test [1], the “eGFP IC50” value is “Inactive”. Further, in test [2], the “PSA IC50” value is listed as “Inactive”.

With `Cc1ccc2ccc(-n3ccc4cccc(C)c43)nc2c1` [Compound 13649], the “eGFP IC50” value in test [1] was “Inactive”. Besides, in test [2], the “PSA IC50” value is given as “Inactive”.

Turning to `Cc1c(F)ccc2c(-c3nc4ccccc4cc3O)c[nH]c12` [Compound 13652], the IC50 in test [1] came to 3540 nM; in test [2] it was 1760 nM.

In the case of `Brc1cccc2c(-c3cnc4ccccc4c3)c[nH]c12` [Compound 13653], the results for the IC50 in test [1] and in test [2] were 1130 nM and 290 nM, respectively.

Turning to `Cc1cccc2c(-c3cccnc3)c[nH]c12` [Compound 13655], the IC50 in test [1] worked out at 1660 nM; in test [2], 610 nM.

Consider `Fc1ccc(F)c2c(-c3ccc4ccccc4n3)c[nH]c12` [Compound 13656], for which the IC50 in test [1] was determined as 990 nM; in test [2] it was 460 nM.

As for `Cc1cc(F)cc2c(-c3cc(C#N)c4ccccc4n3)c[nH]c12` [Compound 13657], the “eGFP IC50” value in test [1] was “Inactive”. In addition, the “PSA IC50” value in test [2] was “Inactive”.

Turning to `Cc1ccc2ccc(-c3c[nH]c4c(C)cccc34)nc2c1` [Compound 13658], the IC50 in test [1] worked out at 2850 nM; in test [2], 2210 nM.

In the case of `Cc1cc(-c2c[nH]c3c(C)c(F)ccc23)nc2ccccc12` [Compound 13659], the “eGFP IC50” value in test [1] is “Inactive”. The “PSA IC50” value in test [2] is on record as “Inactive”.

Consider `Cc1ccc2ccc(-c3c[nH]c4c(C)c(F)ccc34)nc2c1` [Compound 13660], for which the values for the IC50 in test [1] and in test [2] were 2500 nM and 1890 nM, respectively.

`Cc1cccc2c(-c3nc4ccccc4cc3O)c[nH]c12` [Compound 13661]: the “eGFP IC50” value in test [1] is on record as “Inactive”. For the same compound, the “PSA IC50” value in test [2] is recorded as “Inactive”.

`Cc1cccc2c(-c3cnc4cccnc4c3)c[nH]c12` [Compound 13662]: the “eGFP IC50” value in test [1] is reported as “Inactive”. Also, in test [2], the “PSA IC50” value is recorded as “Inactive”.

Consider `c1ccc2nc(-c3n[nH]c4ccccc34)ccc2c1` [Compound 13663], for which, in test [1], the “eGFP IC50” value is given as “Inactive”. In addition, the “PSA IC50” value in test [2] is “Inactive”.

As for `N#Cc1cc(-c2c[nH]c3cc(F)c(F)cc23)nc2ccccc12` [Compound 13664], the “eGFP IC50” value in test [1] is reported as “Inactive”. The “PSA IC50” value in test [2] is recorded as “Inactive”.

On to `Cc1c(F)ccc2c(-c3ccc4cccc(Cl)c4n3)c[nH]c12` [Compound 13665], for which the half-inhibitory concentration (IC50) is 270 nM in test [1] and 210 nM in test [2].

For `O=C(O)c1cccc2nc(-c3c[nH]c4c(F)cc(F)cc34)ccc12` [Compound 13666], in test [1], the “eGFP IC50” value is recorded as “Inactive”. In addition, the “PSA IC50” value in test [2] was “Inactive”.

Regarding `O=[N+]([O-])c1cccc2nc(-c3c[nH]c4c(Cl)cc(F)cc34)ccc12` [Compound 13667], the “eGFP IC50” value in test [1] is “Inactive”. The “PSA IC50” value in test [2] is on record as “Inactive”.

Consider `Fc1cc(Cl)c2[nH]cc(-c3ccc4c(F)cccc4n3)c2c1` [Compound 13668], for which the “eGFP IC50” value in test [1] is recorded as “Inactive”. Further, the “PSA IC50” value in test [2] is recorded as “Inactive”.

Usually IC50 stands for the midpoint of a concentration-inhibition curve.
